Results published in patent US20220204953A1, “Mutant of Acid Phosphatase and Application Thereof” (priority 2021, published 2022).
Substitutions are numbered along the chain they refer to.

Key:
Assay type in all cases: biochemical
Conditions in all cases: 30° C., pH 5.0, sodium pyrophosphate, 1-1,000 mM
[1] = target: T1, Pseudomonas aeruginosa acid phosphatase PaAPase, wild type (WT), SEQ ID NO: 1 (Pseudomonas aeruginosa, UniProt A0A0D6FFE3); assay: Determination of kinetic parameters (phosphorylation of L-ascorbic acid to L-ascorbate-2-phosphate), wild type
T1 construct: 217 aa form
Protocol: (§1) The activities of PaAPase and mutants thereof were determined with high-performance liquid chromatography. 500 μL of a substrate solution (500 mM L-ascorbic acid and 500 mM sodium pyrophosphate) (pH 5.0) and 5 μL of the enzyme liquid react at 30° C. for 30 min, and 95 μL of 42% phosphoric acid was added to terminate the reaction, where an activity unit was defined as the amount of enzyme required for producing 1 μmol of L-ascorbate-2-phosphate within 1 min (Table 3).
(§2) The kinetic parameters, including Vmax, Km and kcat, were calculated by measuring the generation rates of initial products of L-ascorbic acid and L-ascorbate-2-phosphate (1-1,000 mM) at different concentrations at 30° C. and under other conditions consistent with those of the determination of specific enzyme activity.

[2] = target: T2, Pseudomonas aeruginosa acid phosphatase PaAPase variant PaAPaseMu1 (D135R), SEQ ID NO: 19 (Pseudomonas aeruginosa, UniProt A0A0D6FFE3, D159R); assay: Determination of kinetic parameters (phosphorylation of L-ascorbic acid to L-ascorbate-2-phosphate), Mu1
T2 construct: 217 aa form
T2 sequence (A0A0D6FFE3 25-241 D159R): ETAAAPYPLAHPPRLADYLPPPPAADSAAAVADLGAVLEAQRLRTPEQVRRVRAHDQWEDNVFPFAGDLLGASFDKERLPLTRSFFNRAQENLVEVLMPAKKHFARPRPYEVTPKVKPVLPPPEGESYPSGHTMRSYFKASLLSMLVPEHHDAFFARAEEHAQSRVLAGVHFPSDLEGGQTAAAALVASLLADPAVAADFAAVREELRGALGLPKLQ
Protocol: as §1, §2

[3] = target: T3, Pseudomonas aeruginosa acid phosphatase PaAPase variant PaAPaseMu3 (Q57H/W58P/D135R), SEQ ID NO: 22 (Pseudomonas aeruginosa, UniProt A0A0D6FFE3, D159R/Q81H/W82P)
T3 construct: 217 aa form
T3 sequence (A0A0D6FFE3 25-241 Q81H/W82P/D159R): T2 sequence (A0A0D6FFE3 25-241 D159R) with Q57H, W58P

[4] = target: T4, Pseudomonas aeruginosa acid phosphatase PaAPase variant PaAPaseMu2 (W58P/D135R), SEQ ID NO: 21 (Pseudomonas aeruginosa, UniProt A0A0D6FFE3, D159R/W82P); assay: Determination of kinetic parameters (phosphorylation of L-ascorbic acid to L-ascorbate-2-phosphate), Mu2
T4 construct: 217 aa form
T4 sequence (A0A0D6FFE3 25-241 W82P/D159R): T2 sequence (A0A0D6FFE3 25-241 D159R) with W58P
Protocol: as §1, §2

T1 sequence (A0A0D6FFE3 entry or part of it): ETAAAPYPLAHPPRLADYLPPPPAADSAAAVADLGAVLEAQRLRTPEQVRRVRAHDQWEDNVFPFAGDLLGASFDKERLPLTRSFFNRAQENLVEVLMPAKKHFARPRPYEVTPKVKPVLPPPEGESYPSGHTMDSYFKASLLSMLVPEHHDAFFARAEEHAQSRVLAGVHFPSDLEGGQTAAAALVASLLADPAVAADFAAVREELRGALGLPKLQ

O=C1O[C@H]([C@@H](O)CO)C(O)=C1O [L-ascorbic acid]
kcat [1]: 16.3 s⁻¹
kcat/Km [1]: 56.3 M⁻¹ s⁻¹
kcat [2]: 18.7 s⁻¹
kcat/Km [2]: 76.3 M⁻¹ s⁻¹
kcat [3]: 20.1 s⁻¹
kcat/Km [3]: 95.3 M⁻¹ s⁻¹
kcat [4]: 19.2 s⁻¹
kcat/Km [4]: 86.2 M⁻¹ s⁻¹
